Experimental findings from US12570661B2, “Isoform-specific aldehyde dehydrogenase inhibitors” (The Board of Trustees of the Leland Stanford Junior …, priority 2020, dated 2026) are described below.

One test concerns Hedgehog (Hh) signaling. As to the kind of experiment: Hh pathway assay (Shh-LIGHT2 Gli-dependent luciferase reporter, NIH-3T3). The conditions noted are these: Mus musculus; read-out: IC50 in Hh pathway assays. In kind it is cell-based, murine. The procedure: NIH-3T3 cells stably transfected with Gli-dependent firefly luciferase reporter (Shh-LIGHT2 cells (Taipale, J. et al. (2000) Nature 406, 1005-1009) were seeded into 96-well plates at a density of 2×10^4 cells/well and cultured for 24 h. The cells were then cultured in low-serum (0.5% CS) media containing 100 U/mL penicillin, 100 μg/mL streptomycin, and 200 nM Smoothened agonist (SAG) (Chen, J. K. et al. (2002) Proc. Natl. Acad. Sci. U.S.A. 99, 14071-14076; Frank-Kamenetsky, M. et al. (2002) J. Biol. 1, 10) for 30 h. CellTiter AQueous One (20 μL/well; Promega) was added to the cells and incubated for 30 min at 37° C., and cell viabilities were measured as the 490-nm absorbance of the culture media using a Spectramax M2e microplate reader (Molecular Devices). The cells were then washed with PBS and incubated with Bright-Glo reagent (100 μL/well; Promega) for 5 min at room temperature. The resulting chemiluminescence was measured on a Veritas microplate luminometer (Turner BioSystems) and normalized to the CellTiter signal. The normalized luciferase activities for each compound treatment regimen were normalized further to the DMSO control, and dose-responsive curves were generated using Prism software (GraphPad).

In another test the target is T1, ALDH2 (Homo sapiens, UniProt P05091).
T1 construct: made in house
T1 sequence (P05091 18-517): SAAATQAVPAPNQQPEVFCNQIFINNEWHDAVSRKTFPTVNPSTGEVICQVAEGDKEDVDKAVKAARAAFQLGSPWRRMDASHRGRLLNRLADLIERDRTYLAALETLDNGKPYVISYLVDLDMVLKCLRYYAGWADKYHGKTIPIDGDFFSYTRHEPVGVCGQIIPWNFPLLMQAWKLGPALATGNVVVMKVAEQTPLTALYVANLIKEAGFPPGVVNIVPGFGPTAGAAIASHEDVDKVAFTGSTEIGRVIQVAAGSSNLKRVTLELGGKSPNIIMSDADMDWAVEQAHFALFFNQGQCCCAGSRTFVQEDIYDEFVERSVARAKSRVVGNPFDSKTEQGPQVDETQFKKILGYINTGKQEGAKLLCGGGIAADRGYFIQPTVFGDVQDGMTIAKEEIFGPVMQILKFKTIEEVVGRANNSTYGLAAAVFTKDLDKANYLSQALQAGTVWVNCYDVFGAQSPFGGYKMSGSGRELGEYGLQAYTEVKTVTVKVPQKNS
As to the kind of experiment: ALDH2 enzyme kinetics assay. The conditions noted are these: 50-μM compound concentration. In kind it is biochemical. The method, then: Cloning, expression, and purification of human recombinant ALDH1A1, ALDH1A3, ALDH2, ALDH3A1, ALDH3A2, ALDH4A1, ALDH5A1 and ALDH7A1 isozymes were conducted as described previously (Chen, C. H. et al. (2015) Proc. Natl. Acad. Sci. U.S.A. 112, 3074-3079). Human ALDH1A2 (Origene, SC109995) and ALDH1B1 (T. Hurley, Indiana University) plasmids were cloned into the pET-15b expression vector (Novagen, 69661-3) containing an N-terminal hexahistidine tag. The mitochondria-targeting sequence of ALDH1B1 was also removed. […] The protein concentration for each fraction was measured (500 μL elution volume was collected as one fraction and was immediately mixed with 500 μL glycerol. The protein concentration for each fraction was measured (600 nm Protein Assay Reagent; Thermo Fisher Scientific), and protein-containing fractions were diluted with an equal volume of glycerol and stored at −80° C. Samples from each step were also collected for SDS-PAGE gel analysis. For ALDH1B1 protein co-expression with chaperones, pET-15b-ALDH1B1 and GroEL/GroES (Addgene, plasmid pBB541) plasmids were co-transformed into competent BL21 E. coli cells, which were subsequently grown in 1 L of Luria-Bertani medium containing 100 μg/mL ampicillin and 50 μg/mL spectinomycin at 37° C. […]

SMILES strings stand for the structures.

As for `COc1ccccc1-n1cc(-c2ccc(-c3ccccc3)cc2)[n+]2c1CCCCC2` [Imidazolium 2], the half-maximal inhibitory concentration (IC50) in the test with Hedgehog (Hh) signaling was roughly 0.7 µM. The “inhibition of ALDH2 activity” value on ALDH2 is on record as “neither imidazolium 1 or 2 could inhibit ALDH2 activity”.
